Test results published in publication PMC4871484, “Functional Green-Tuned Proteorhodopsin from Modern Stromatolites” (PLoS ONE, 2016).

Target: T1, E17R (E17-PR), green proteorhodopsin (Exiguobacterium sp. S17, UniProt S3FWZ0)
T1 sequence (S3FWZ0 1-248): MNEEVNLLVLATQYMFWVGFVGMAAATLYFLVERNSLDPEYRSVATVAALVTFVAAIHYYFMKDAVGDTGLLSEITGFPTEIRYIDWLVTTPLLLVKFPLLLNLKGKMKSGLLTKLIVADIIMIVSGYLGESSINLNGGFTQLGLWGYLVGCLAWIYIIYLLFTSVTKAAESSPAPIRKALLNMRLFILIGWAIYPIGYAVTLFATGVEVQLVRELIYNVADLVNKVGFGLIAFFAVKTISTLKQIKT
Experiment: UV-vis absorption of purified holoprotein; hydroxylamine bleaching to retinal oxime
Format: binding
Settings: covalent; Schiff base with lysine; […] HEPES, […] NaCl, […] DDM; room temperature

Compound: CC1=C(/C=C/C(C)=C/C=C/C(C)=C/C=O)C(C)(C)CCC1 [retinal]
- UV-vis absorption of purified holoprotein; hydroxylamine bleaching to retinal ox: Expression and purification of E17R yielded after purification and retinal addition a protein with λmax
